In ChEMBL document CHEMBL1201862, “PubChem BioAssay data set” (2004):
The source made the active and inactive calls.

Tests used:
Cytochrome P450 2D6 = Cytochrome P450 2D6 (Homo sapiens, UniProt P10635);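 further: CYP2D6 member of a cytochrome P450 panel assay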
Cytochrome P450 3A4 = Cytochrome P450 3A4 (Homo sapiens, UniProt P08684);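 further: CYP3A4 tested as one member of a cytochrome P450 panel screen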
Cytochrome P450 2C9 = Cytochrome P450 2C9 (Homo sapiens, UniProt P11712)
[1] = Luminescence Cell-Based Dose Response HTS to Identify Activators of Luciferase Translation or Activity in H4 […] Cells. [Related pubchem assays: 1829 (Project Summary), 1814 (Primary HTS)]; assay type: functional
H4 = experiment: Luminescence Cell-Based Dose Response HTS to Identify Activators of 5'UTR Stem-Loop Driven Prion Protein mRNA Translation in H4 Neuroglioblastoma Cells. [Related pubchem assays: 1829 (Project Summary), 1814 (Primary HTS)]; assay type: functional; settings: Homo sapiens
[2] = luciferase reporter signal suppression in cells – H4 neuroglioma cells, luminescence, dose response (AID 1990); assay type: functional, cell-based
cells [3] = assay type: functional, cell-based
[4] = Luminescence Cell-Based Dose Response HTS to Identify Inhibitors of 5'UTR Stem-Loop Driven Prion Protein mRNA Translation in H4 Neuroglioblastoma Cells. [Related pubchem assays: 1827 (Project Summary), 1813 (Primary HTS)]; assay type: functional
[5] = alpha-synuclein stem-loop luciferase translation blockers – H4 neuroglioma cells, luminescence, confirmation (AID 1988); assay type: functional, cell-based
cells [6] = assay type: functional, cell-based; remark: listed apart in the source
[7] = Luminescence Cell-Based Dose Retest to Confirm Inhibitors of Cancer Stem Cells. [Related pubchem assays (depositor defined):AID2717, AID2721]; assay type: functional; settings: Homo sapiens
[8] = viability of PTEN-deleted HCT116 cells – cell-based, HCT116 PTEN knockout, dose response (AID 1047); assay type: functional;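 further: HCT116 colon tumor cells with PTEN knocked out; cells exposed to compound for 60 hours before readout; potency for loss of cell viability measured by luminescence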
[9] = viability of HCT116 lacking mutant beta-catenin – cell-based, human colon tumor, dose response (AID 1045); assay type: functional;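 further: HCT116 colon tumor cells with beta catenin knocked out; cells exposed to compound for 60 hours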
INS1 = experiment: INS-1E survival protection against cytokine death – cell-based, luminescence, retest, dose response (AID 449756); assay type: functional; settings: Rattus norvegicus;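 further: cell death triggered by IL-1 beta plus TNF-alpha plus IFN-gamma mixture; protective hits raise ATP signal compared with cytokine alone wells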
H9c2 = experiment: cells; assay type: functional, cell-based; settings: Rattus norvegicus, H9c2, Myocardium;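 further: confirmatory concentration-response retest of ultra-high-throughput screening hits for modulation of myocardial damage; cell death induced by hydrogen peroxide oxidative stress; compound pretreatment for 60 min then peroxide exposure for 2 h; potency is for protecting the cells against peroxide damage rather than for killing them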
[10] = NIH-3T3 fibroblast cytotoxicity, dose response, cytotoxicity control, cell-based, fluorescence, Alamar Blue, secondary assay (AID 2327); assay type: functional;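 further: NIH-3T3 mouse fibroblasts cultured with fluconazole at 8 µg/mL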
[11] = fluconazole-exposed Candida albicans growth modulators – fluorescence, retest, confirmation (AID 2467); assay type: functional, cell-based
[12] = microbe, parasite or virus in culture; assay type: functional; settings: Mycobacterium tuberculosis
Paired box protein Pax-8 = Paired box protein Pax-8 (Homo sapiens, UniProt Q06710); experiment: PAX8 transcriptional activity inhibition in RMG-I – RMG-I cells, luciferase, cherry-pick, dose response (AID 687027); assay type: functional, cell-based;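 further: luciferase reporter driven by Pax8 target thyroperoxidase promoter measured by SteadyGlo luminescence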
Sequence of Paired box protein Pax-8 (Q06710 whole entry): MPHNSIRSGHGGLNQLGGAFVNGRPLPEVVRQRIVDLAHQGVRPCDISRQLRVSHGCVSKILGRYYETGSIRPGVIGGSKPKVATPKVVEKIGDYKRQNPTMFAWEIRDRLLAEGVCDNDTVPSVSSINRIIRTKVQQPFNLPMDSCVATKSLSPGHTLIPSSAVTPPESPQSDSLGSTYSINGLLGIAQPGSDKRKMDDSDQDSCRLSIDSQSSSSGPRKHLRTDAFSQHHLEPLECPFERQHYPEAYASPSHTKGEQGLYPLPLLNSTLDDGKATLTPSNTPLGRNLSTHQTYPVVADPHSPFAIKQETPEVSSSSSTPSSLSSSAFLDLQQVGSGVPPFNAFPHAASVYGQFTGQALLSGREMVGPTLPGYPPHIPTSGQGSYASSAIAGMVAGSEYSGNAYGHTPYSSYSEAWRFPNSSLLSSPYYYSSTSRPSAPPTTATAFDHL

Cytochrome P450 1A2 = target: T1, Cytochrome P450 1A2 (Homo sapiens, UniProt P05177);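 further: PubChem cytochrome P450 panel assay, CYP1A2 panel member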
T1 sequence (P05177 whole entry): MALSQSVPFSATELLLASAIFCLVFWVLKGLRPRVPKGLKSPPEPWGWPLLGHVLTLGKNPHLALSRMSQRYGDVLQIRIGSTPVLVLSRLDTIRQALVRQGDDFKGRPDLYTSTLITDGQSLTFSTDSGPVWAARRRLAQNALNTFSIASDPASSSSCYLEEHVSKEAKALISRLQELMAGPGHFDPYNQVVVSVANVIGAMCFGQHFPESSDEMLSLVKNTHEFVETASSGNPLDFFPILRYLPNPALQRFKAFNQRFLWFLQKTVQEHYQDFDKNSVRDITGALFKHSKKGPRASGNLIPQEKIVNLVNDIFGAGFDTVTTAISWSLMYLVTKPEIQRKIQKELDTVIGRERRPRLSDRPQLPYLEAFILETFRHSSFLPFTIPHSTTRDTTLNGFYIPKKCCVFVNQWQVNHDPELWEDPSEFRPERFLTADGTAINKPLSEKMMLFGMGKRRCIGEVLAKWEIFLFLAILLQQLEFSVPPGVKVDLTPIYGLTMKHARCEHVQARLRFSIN

Cytochrome P450 2C19 = Cytochrome P450 2C19 (Homo sapiens, UniProt P33261); experiment: Cytochrome panel assay with activity outcomes. Panel member name: p450-cyp2c19 Compounds with AC50 equal or less than 10 uM are considered active; assay type: functional; settings: read-out: AC50
Sequence of Cytochrome P450 2C19 (P33261 whole entry): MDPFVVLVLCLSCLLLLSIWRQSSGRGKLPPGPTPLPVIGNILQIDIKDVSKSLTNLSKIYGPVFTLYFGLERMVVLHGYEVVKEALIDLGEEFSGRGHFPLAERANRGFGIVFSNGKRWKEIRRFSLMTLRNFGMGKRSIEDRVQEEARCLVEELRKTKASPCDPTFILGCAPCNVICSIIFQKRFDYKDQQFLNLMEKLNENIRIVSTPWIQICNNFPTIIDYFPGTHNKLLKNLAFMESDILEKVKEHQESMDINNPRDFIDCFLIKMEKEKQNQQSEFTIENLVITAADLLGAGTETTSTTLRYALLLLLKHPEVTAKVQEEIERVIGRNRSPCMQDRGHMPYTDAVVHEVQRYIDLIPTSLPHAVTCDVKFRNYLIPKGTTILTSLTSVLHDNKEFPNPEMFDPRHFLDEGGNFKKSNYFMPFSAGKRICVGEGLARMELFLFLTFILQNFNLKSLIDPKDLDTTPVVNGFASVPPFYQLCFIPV

Sequence of Cytochrome P450 2C9 (P11712 whole entry): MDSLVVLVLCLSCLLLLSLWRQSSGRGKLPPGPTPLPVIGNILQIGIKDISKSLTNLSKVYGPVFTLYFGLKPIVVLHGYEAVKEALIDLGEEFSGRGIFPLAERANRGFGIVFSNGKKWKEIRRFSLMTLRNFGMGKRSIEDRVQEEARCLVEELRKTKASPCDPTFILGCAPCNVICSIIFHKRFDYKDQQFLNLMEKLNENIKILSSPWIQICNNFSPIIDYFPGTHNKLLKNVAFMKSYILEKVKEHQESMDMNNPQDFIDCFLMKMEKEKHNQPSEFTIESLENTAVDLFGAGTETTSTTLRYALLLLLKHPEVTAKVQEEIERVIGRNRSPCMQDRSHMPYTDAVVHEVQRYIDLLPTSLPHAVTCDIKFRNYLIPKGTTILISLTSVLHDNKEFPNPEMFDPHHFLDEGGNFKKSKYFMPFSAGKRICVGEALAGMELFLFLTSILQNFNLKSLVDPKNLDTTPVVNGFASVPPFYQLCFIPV
Sequence of Cytochrome P450 2D6 (P10635 whole entry): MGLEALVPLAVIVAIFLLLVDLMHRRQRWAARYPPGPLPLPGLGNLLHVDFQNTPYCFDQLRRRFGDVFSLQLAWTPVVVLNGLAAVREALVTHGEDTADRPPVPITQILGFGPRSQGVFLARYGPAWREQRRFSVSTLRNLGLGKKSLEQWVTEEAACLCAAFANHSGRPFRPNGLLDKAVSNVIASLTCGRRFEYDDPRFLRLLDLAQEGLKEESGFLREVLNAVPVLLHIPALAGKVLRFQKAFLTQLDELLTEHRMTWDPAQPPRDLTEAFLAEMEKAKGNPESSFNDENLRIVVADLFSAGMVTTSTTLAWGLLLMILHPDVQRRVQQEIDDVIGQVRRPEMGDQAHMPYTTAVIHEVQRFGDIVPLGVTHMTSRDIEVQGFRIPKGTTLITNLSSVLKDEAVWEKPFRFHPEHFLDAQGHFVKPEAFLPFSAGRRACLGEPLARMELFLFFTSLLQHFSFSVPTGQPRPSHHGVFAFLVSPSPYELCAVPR
Sequence of Cytochrome P450 3A4 (P08684 whole entry): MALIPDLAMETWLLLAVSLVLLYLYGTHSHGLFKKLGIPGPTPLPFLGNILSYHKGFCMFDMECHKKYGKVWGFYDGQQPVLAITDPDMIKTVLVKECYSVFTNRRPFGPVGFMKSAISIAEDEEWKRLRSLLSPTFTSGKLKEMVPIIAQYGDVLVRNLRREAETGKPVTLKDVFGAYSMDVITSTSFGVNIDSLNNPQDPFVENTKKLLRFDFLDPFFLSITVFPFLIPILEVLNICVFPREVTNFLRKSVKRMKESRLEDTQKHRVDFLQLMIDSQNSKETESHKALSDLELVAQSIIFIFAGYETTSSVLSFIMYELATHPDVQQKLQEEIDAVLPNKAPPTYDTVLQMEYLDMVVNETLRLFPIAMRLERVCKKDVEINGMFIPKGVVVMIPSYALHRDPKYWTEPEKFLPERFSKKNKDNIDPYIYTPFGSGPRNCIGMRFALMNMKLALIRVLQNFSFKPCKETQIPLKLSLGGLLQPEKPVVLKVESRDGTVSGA

CSc1nc2ccccc2cc1/C=C(\C#N)c1cccc(C)c1
AC50 (Cytochrome P450 2D6): 6.31 µM (inconclusive) | AC50 (Cytochrome P450 3A4): 25.1 µM (inconclusive) | AC50 (Cytochrome P450 2C9): 31.6 µM (inconclusive)

O=C(COC(=O)c1ccccc1[N+](=O)[O-])c1ccc2c(c1)OCO2
EC50 [1]: > 120 µM (not active) | EC50 (H4): 36 µM (active)

CN1CCN(C2Cc3ccc(F)cc3Sc3cc(F)c(Cl)cc32)CC1 (stereo not given)
EC50 [2]: > 120 µM (not active) | EC50 (cells [3]): > 350 µM (not active) | EC50 [4]: > 120 µM (not active) | EC50 [5]: > 60 µM (not active) | EC50 (cells [6]): 20.1 µM (active) | AC50 [7]: 6.08 µM (active)

CCN(CC)S(=O)(=O)c1cc(-c2nnc(-c3ccc(Br)cc3)o2)ccc1Cl
EC50 [8]: 28.1 µM (active) | EC50 [9]: 21.5 µM (active)

O=C1/C(=C\c2cccnc2)CN(Cc2ccccc2)C/C1=C\c1cccnc1
EC50 [8]: 1.29 µM (active) | EC50 [9]: 0.429 µM (active) | AC50 [7]: 2.06 µM (active) | AC50 (INS1): 4.87 µM (active)

Cc1ccccc1NC(=O)COC(=O)CCc1nc(O)c2ccccc2n1
IC50 (H9c2): 10.1 µM (active)

CCOC(=O)c1c(NC(=O)CN2CCN(C(=O)c3ccco3)CC2)sc2c1CCCC2
EC50 [10]: > 150 µM (inactive) | EC50 [11]: > 38 µM (not active) | EC50 [8]: 35.1 µM (active) | EC50 [9]: 28.7 µM (active)

COc1nc(N/N=C/c2cc3c(cc2Br)OCO3)nc(N2CCOCC2)n1
IC50 (H9c2): > 79 µM (inactive)

COCc1nnc(NC(=O)c2ccc(S(=O)(=O)N3CCCCCC3)cc2)o1
EC50 [10]: > 160 µM (inactive)

O=C(Nc1ccc(F)cc1)c1cnc(-c2ccccc2)nc1-c1ccccc1
EC50 [8]: 10 µM (active) | EC50 [9]: 9.24 µM (active)

O=C(Oc1ccccc1)N1CCC2(CC1)CCN(c1ccncc1)CC2
AC50 (Cytochrome P450 2D6): 39.8 µM (inconclusive) | AC50 (Cytochrome P450 2C9): 20 µM (inconclusive)

COC(=O)c1ccc(/C=C/c2c(-c3ccsc3)oc3ccc(N4CCOCC4)cc23)cc1
CC50 [12]: > 40 µM (active) | AC50 [7]: 3.33 µM (active)

COc1ccc(C(=O)CSc2nncn2C)cc1
EC50 (cells [3]): > 350 µM (not active) | EC50 (cells [6]): > 350 µM (not active)

COc1cc(C(=O)Nc2cc3c(cc2N2CCCCC2)n(C)c(=O)n3C)cc(OC)c1OC
IC50 (H9c2): 8.81 µM (active)

COc1ccc(COc2cc(-c3cccc(OC)c3)nc3ccc(NC(=O)c4cccnc4)cc23)cc1
IC50 (H9c2): > 79 µM (inactive)

Cc1cccc(NC(=O)CC23CC4CC(C2)CC(n2nnc(C)n2)(C4)C3)c1
AC50 (Paired box protein Pax-8): 37.1 µM (active)

O=C(CCc1nnc(-c2ccccc2)o1)c1ccc(Cl)cc1
EC50 (cells [3]): > 350 µM (not active)

CC(C)n1cnc2c(NCc3ccccc3)cc(Cc3ccc(F)cc3)cc21
CC50 [12]: > 40 µM (active) | AC50 [7]: 1.78 µM (active)

CCOC(=O)c1cnc2ccc(C(=O)OC)cc2c1NCCc1ccc(OC)c(OC)c1
IC50 (H9c2): > 79 µM (inactive)

CCn1c(C)cc(/C=C2\SC(=O)N(CC(=O)Nc3ccc(C)c(C)c3)C2=O)c1C
EC50 [8]: 210 µM (active) | EC50 [9]: 24.1 µM (active) | AC50 (Cytochrome P450 1A2): 8.91 µM (inconclusive) | AC50 (Cytochrome P450 3A4): 1 µM (inconclusive) | AC50 (Cytochrome P450 2C9): 1.58 µM (inconclusive)

C[C@H]1CCCCO[C@@H](CN(C)C(=O)Nc2ccc(C(F)(F)F)cc2)[C@@H](C)CN([C@@H](C)CO)C(=O)c2cc(NS(=O)(=O)c3cn(C)cn3)ccc2O1
AC50 (Paired box protein Pax-8): 17.9 µM (active)

Cc1noc(C)c1-c1nc(N(C)C)c2ccccc2n1
AC50 (Cytochrome P450 2C19): 25.1 µM (inconclusive) | AC50 (Cytochrome P450 2D6): 20 µM (inconclusive) | AC50 (Cytochrome P450 3A4): 15.8 µM (inconclusive)

CCc1cc2c(=O)c(-c3ccc4c(c3)OCCO4)coc2cc1OS(C)(=O)=O
EC50 [8]: 14.6 µM (active) | EC50 [9]: 18 µM (active)

Nc1c(C(=O)NC2CCCC2)c2nc3ccccc3nc2n1N
IC50 (H9c2): > 79 µM (inactive)

CCOCCCNS(=O)(=O)c1ccc(NC(=O)N2c3ccccc3Sc3ccccc32)cc1
CC50 [12]: 36.6 µM (active)

O=c1[nH]c(=O)n(Cc2ccccc2)c2nc(-c3ccc(Oc4ccc(F)cc4)c([N+](=O)[O-])c3)n(CCO)c12
CC50 [12]: 13.9 µM (active) | EC50 [8]: 7.51 µM (active) | EC50 [9]: 8.03 µM (active)

CCN1CCN(c2nc3ccccc3nc2C(C#N)C(=O)OC2CCCCC2)CC1 (stereo not given)
AC50 (Cytochrome P450 2C19): 39.8 µM (inconclusive) | AC50 (Cytochrome P450 2D6): 28.2 µM (inconclusive) | AC50 (Cytochrome P450 2C9): 39.8 µM (inconclusive)

c1ccc(-c2ccccc2OCCCN2CCCCCC2)cc1
EC50 [10]: > 150 µM (inactive) | EC50 [11]: > 38 µM (not active)

CC(OC(=O)COc1ccc(Nc2ccccc2)cc1)C(=O)N(C)c1ccccc1 (stereo not given)
EC50 (cells [3]): > 350 µM (not active) | EC50 (cells [6]): 30.5 µM (active)

COc1cc(/C=N/NC(=O)c2ccncc2)ccc1OCC(=O)Nc1ccc(C)c(C)c1
IC50 (H9c2): > 79 µM (inactive)

Cc1nnc(S)n1/N=C/c1cccc(OCc2ccccc2)c1
CC50 [12]: > 40 µM (active)

CC(=O)c1cccc(-c2cnc3c(NC=O)cc(-c4ccc(F)cc4)cn23)c1
IC50 (H9c2): > 79 µM (inactive)

Cc1oc(-c2ccc(Cl)cc2)cc1/C(O)=C(C#N)/C=N/c1cccc(OC(F)(F)F)c1
EC50 (cells [3]): > 350 µM (not active) | EC50 (cells [6]): > 350 µM (not active)

c1ccc(CSc2nnc(-c3cccs3)n2Cc2ccco2)cc1
EC50 [10]: > 150 µM (inactive) | EC50 [11]: > 38 µM (not active)

CCN(C[C@H]1N[C@@](CC)(C(=O)OC)[C@H]2C(=O)N(Cc3ccccc3)C(=O)[C@@H]12)S(=O)(=O)c1ccc(F)cc1
IC50 (H9c2): 13.9 µM (active)

CCC(=O)Oc1ccc2c(C)cc(=O)oc2c1C
IC50 (H9c2): 74.2 µM (inactive)

Cc1ccc2c(c1)C1NC(S)=NC(C)(O2)C1C(=O)Nc1ccc(Cl)cc1 (stereo not given)
EC50 (cells [3]): > 350 µM (not active) | EC50 (cells [6]): > 350 µM (not active)

COc1ccc(CNS(=O)(=O)c2cc3c4c(c2)C(C)C(=O)N4CCC3)cc1 (stereo not given)
EC50 (cells [3]): > 350 µM (not active) | EC50 (cells [6]): > 350 µM (not active)

C[C@@H]1CN([C@H](C)CO)C(=O)c2cc(NC(=O)Nc3ccc(C(F)(F)F)cc3)ccc2O[C@@H](C)CCCCO[C@H]1CN(C)C(=O)Nc1ccc(F)cc1
AC50 (Paired box protein Pax-8): 1.41 µM (active)

CC(C)[C@H](NC(=O)c1ccco1)C(=O)OCc1cc(=O)n2c(n1)sc1ccccc12
EC50 (cells [3]): > 350 µM (not active) | EC50 (cells [6]): > 350 µM (not active)

CCCC(=O)Nc1ccc2c(c1)C(=O)N(C)C[C@@H](OC)[C@H](C)CN(Cc1ccc(-c3ccccn3)cc1)[C@H](C)CO2
AC50 (Paired box protein Pax-8): 28.7 µM (active)

COC(=O)c1[nH]c2c(c1C)C(=O)CC(c1cc(OC)ccc1OC)C2 (stereo not given)
IC50 (H9c2): > 79 µM (inactive)
